Experimental data published in ChEMBL document CHEMBL5247642, “Structural Optimization of Fibroblast Growth Factor Receptor Inhibitors for Treating Solid Tumors” (J Med Chem, 2023).
pIC50: −log10 of the molar value. In brackets after ≈: the same amount, converted by molar mass. Activity calls are given as the source filed them. The rule behind the calls is not given here.

How the values were obtained:
[1] = target: Fibroblast growth factor receptor 3 (Homo sapiens, UniProt P22607); test: Inhibition of FGFR3 (unknown origin) using Poly (Glu,Tyr) 4:1 as substrate incubated for 60 mins in presence of ATP by ELISA analysis
NCI-H2228 = test: Antiproliferative activity against human NCI-H2228 cells assessed as reduction in cell viability measured after 72 hrs; type: functional, cell-based; conditions: NCI-H2228, 72 h
ASPC1 = test: Antiproliferative activity against human ASPC1 cells assessed as reduction in cell viability measured after 72 hrs; type: functional, cell-based; conditions: ASPC1, 72 h
[2] = Stability in rat whole blood assessed as parent compound remaining measured upto 5 hrs by LC-MS/MS analysis; type: ADME, tissue-based
BaF3 = test: Antiproliferative activity against mouse BaF3 cells assessed as reduction in cell viability measured after 72 hrs; type: functional, cell-based; conditions: BaF3, 72 h
[3] = target: T1, Fibroblast growth factor receptor 1 (Homo sapiens, UniProt P11362); conditions: dose 1.0 nM, time 60.0 min
Hs746T = test: Antiproliferative activity against human Hs746T cells assessed as reduction in cell viability measured after 72 hrs; type: functional, cell-based
NCI-H3122 = test: Antiproliferative activity against human NCI-H3122 cells assessed as reduction in cell viability measured after 72 hrs; type: functional, cell-based; conditions: NCI-H3122, 72 h
[4] = Half life in CD-1 mouse at 3 mg/kg, po measured after 24 hrs by LC-MS/MS analysis; type: ADME, organism-based; conditions: in vivo
NCI-H1792 = test: Antiproliferative activity against human NCI-H1792 cells assessed as reduction in cell viability measured after 72 hrs; type: functional, cell-based; conditions: NCI-H1792, 72 h
NCI-H1581 [5] = test: Antiproliferative activity against human NCI-H1581 cells expressing FGFR1 assessed as reduction in cell viability measured after 72 hrs; type: functional, cell-based; conditions: NCI-H1581, 72 h
OPM-2 = test: Antiproliferative activity against human OPM-2 cells expressing FGFR3 assessed as reduction in cell viability measured after 72 hrs; type: functional, cell-based; conditions: OPM-2, 72 h
[6] = Half life in CD-1 mouse at 1 mg/kg, iv measured after 24 hrs by LC-MS/MS analysis; type: ADME, organism-based; conditions: in vivo
NCI-H1581 [7] = test: Antitumor activity against human NCI-H1581 cells xenografted in po dosed nude mouse assessed as tumor growth inhibition administered once daily for 11 days by microcaliper analysis; type: functional, organism-based; conditions: dose 200-400 mg/kg, time 11.0 day
NCI-H520 = test: Antiproliferative activity against human NCI-H520 cells assessed as reduction in cell viability measured after 72 hrs; type: functional, cell-based; conditions: NCI-H520, 72 h
NCI-H1581 [8] = test: Antitumor activity against human NCI-H1581 cells xenografted in nude mouse assessed as tumor growth inhibition at 400 mg/kg, po administered once daily for 11 days by microcaliper analysis; type: functional, organism-based; conditions: time 11.0 day
[9] = target: Fibroblast growth factor receptor 2 (Homo sapiens, UniProt P21802); test: Inhibition of FGFR2 (unknown origin) using Poly (Glu,Tyr) 4:1 as substrate incubated for 60 mins in presence of ATP by ELISA analysis
[10] = target: Fibroblast growth factor receptor 3 (Homo sapiens, UniProt P22607, V555M); test: Inhibition of FGFR3 V555M mutant (unknown origin)
HCC78 = test: Antiproliferative activity against human HCC78 cells assessed as reduction in cell viability measured after 72 hrs; type: functional, cell-based; conditions: HCC78, 72 h
[11] = AUC (0 to infinity) in CD-1 mouse at 1 mg/kg, iv measured after 24 hrs by LC-MS/MS analysis; type: ADME, organism-based; set-up: dose 1 mg/kg, time 24 hrs, route iv; conditions: in vivo
[12] = AUC (0 to infinity) in CD-1 mouse at 3 mg/kg, po measured after 24 hrs by LC-MS/MS analysis; type: ADME, organism-based; set-up: time 24 hrs, dose 3 mg/kg, route po; conditions: in vivo
[13] = MRT in CD-1 mouse at 1 mg/kg, iv measured after 24 hrs by LC-MS/MS analysis; type: ADME, organism-based; conditions: in vivo
[14] = MRT in CD-1 mouse at 3 mg/kg, po measured after 24 hrs by LC-MS/MS analysis; type: ADME, organism-based; conditions: in vivo
[15] = AUC (0 to t) in CD-1 mouse at 1 mg/kg, iv measured after 24 hrs by LC-MS/MS analysis; type: ADME, organism-based; set-up: time 24 hrs, dose 1 mg/kg, route iv; conditions: in vivo
[16] = target: T1, Fibroblast growth factor receptor 1; conditions: dose 10.0 nM, time 60.0 min
[17] = target: Fibroblast growth factor receptor 2 (Homo sapiens, UniProt P21802, N549H); test: Inhibition of human recombinant FGFR2 N549H mutant (456 to 770 residues) using GGEEEEYFELVKK as substrate incubated for 40 mins presence of [gamma-33P]-ATP by radiometric based scintillation counter assay
[18] = Toxicity in nude mouse xenografted with human SNU-16 cells assessed as body weight loss at 200 to 400 mg/kg, po administered once daily for 21 days; type: organism-based; conditions: in vivo, 504 h, dose 200-400 mg/kg, time 21 day
PANC-1 = test: Antiproliferative activity against human PANC-1 cells assessed as reduction in cell viability measured after 72 hrs; type: functional, cell-based; conditions: PANC-1, 72 h
NCI-H716 = test: Antitumor activity against human NCI-H716 cells xenografted in nude mouse assessed as tumor growth inhibition at 200 mg/kg, po administered once daily for 18 days by microcaliper analysis relative to control; type: functional; set-up: scale not given: the % may be the effect or the level left; conditions: time 18 day
NCI-H526 = test: Antiproliferative activity against human NCI-H526 cells assessed as reduction in cell viability measured after 72 hrs; type: functional, cell-based; conditions: NCI-H526, 72 h
[19] = Solubility of compound in PBS at pH 7.4 at 1 to 100 microg/ml by laser nephelometry analysis; type: physicochemical; conditions: dose 1-100 µg/ml
[20] = target: Fibroblast growth factor receptor 2 (Homo sapiens, UniProt P21802, V564F); test: Inhibition of FGFR2 V564F mutant (unknown origin)
NCI-H441 = test: Antiproliferative activity against human NCI-H441 cells assessed as reduction in cell viability measured after 72 hrs; type: functional, cell-based; conditions: NCI-H441, 72 h
SNU-16 = test: Antiproliferative activity against human SNU-16 cells assessed as reduction in cell viability measured for 72 hrs; type: functional, cell-based; conditions: SNU-16, 72 h
BXPC-3 = test: Antiproliferative activity against human BXPC-3 cells assessed as reduction in cell viability measured after 72 hrs; type: functional, cell-based; conditions: BXPC-3, 72 h
NCI-H522 = test: Antiproliferative activity against human NCI-H522 cells assessed as reduction in cell viability measured after 72 hrs; type: functional, cell-based; conditions: NCI-H522, 72 h
A549 = test: Antiproliferative activity against human A549 cells assessed as reduction in cell viability measured after 72 hrs; type: functional, cell-based; conditions: A549, 72 h
[21] = Cmax in CD-1 mouse at 3 mg/kg, po measured after 24 hrs by LC-MS/MS analysis; type: ADME, organism-based; set-up: time 24 hrs, dose 3 mg/kg, route po; conditions: in vivo
PC-9 = test: Antiproliferative activity against human PC-9 cells assessed as reduction in cell viability measured after 72 hrs; type: functional, cell-based; conditions: PC-9, 72 h

T1 sequence (P11362 22-822 limits assumed): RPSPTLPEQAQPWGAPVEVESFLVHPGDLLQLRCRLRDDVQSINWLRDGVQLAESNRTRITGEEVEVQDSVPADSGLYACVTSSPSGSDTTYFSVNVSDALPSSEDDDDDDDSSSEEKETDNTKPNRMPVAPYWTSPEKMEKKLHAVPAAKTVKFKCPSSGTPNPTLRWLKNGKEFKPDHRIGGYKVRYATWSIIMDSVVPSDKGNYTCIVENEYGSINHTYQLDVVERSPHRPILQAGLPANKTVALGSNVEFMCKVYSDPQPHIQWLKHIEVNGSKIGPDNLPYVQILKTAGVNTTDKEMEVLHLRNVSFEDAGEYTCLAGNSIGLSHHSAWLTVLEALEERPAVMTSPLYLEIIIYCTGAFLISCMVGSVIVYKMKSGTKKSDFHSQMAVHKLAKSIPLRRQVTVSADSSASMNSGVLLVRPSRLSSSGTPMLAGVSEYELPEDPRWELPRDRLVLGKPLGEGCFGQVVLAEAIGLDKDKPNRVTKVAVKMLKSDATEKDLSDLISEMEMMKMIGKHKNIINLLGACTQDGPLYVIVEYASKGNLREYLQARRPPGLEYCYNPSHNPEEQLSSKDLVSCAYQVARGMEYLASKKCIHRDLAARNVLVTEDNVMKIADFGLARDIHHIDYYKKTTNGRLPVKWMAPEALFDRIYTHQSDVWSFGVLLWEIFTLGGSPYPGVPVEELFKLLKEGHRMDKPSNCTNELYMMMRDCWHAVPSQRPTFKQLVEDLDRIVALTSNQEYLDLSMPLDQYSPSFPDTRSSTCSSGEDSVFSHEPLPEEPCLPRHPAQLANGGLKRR
Sequence of Fibroblast growth factor receptor 3 (Homo sapiens, UniProt P22607, V555M) (P22607 23-806 V555M limits assumed): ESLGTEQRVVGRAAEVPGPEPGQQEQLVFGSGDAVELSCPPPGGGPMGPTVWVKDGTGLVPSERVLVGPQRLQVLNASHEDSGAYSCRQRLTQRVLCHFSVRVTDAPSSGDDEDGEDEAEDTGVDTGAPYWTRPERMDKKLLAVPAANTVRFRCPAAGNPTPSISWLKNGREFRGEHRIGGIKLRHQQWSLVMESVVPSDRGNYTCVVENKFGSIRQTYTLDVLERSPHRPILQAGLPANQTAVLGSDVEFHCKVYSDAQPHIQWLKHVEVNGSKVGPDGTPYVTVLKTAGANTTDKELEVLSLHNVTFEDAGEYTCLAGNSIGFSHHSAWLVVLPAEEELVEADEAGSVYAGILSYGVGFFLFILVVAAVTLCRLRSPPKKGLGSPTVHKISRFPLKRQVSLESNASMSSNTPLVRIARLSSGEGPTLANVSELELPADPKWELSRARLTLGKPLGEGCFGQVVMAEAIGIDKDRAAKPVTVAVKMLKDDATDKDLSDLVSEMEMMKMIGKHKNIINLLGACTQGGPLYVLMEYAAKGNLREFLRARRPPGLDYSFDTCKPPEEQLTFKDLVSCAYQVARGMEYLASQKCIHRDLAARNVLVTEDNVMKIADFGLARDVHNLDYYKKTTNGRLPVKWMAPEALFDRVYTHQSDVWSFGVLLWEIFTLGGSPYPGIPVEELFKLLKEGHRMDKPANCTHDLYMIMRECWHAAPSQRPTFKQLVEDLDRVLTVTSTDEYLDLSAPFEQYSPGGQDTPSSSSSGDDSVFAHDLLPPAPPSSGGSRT
Sequence of Fibroblast growth factor receptor 2 (Homo sapiens, UniProt P21802) (P21802 whole entry): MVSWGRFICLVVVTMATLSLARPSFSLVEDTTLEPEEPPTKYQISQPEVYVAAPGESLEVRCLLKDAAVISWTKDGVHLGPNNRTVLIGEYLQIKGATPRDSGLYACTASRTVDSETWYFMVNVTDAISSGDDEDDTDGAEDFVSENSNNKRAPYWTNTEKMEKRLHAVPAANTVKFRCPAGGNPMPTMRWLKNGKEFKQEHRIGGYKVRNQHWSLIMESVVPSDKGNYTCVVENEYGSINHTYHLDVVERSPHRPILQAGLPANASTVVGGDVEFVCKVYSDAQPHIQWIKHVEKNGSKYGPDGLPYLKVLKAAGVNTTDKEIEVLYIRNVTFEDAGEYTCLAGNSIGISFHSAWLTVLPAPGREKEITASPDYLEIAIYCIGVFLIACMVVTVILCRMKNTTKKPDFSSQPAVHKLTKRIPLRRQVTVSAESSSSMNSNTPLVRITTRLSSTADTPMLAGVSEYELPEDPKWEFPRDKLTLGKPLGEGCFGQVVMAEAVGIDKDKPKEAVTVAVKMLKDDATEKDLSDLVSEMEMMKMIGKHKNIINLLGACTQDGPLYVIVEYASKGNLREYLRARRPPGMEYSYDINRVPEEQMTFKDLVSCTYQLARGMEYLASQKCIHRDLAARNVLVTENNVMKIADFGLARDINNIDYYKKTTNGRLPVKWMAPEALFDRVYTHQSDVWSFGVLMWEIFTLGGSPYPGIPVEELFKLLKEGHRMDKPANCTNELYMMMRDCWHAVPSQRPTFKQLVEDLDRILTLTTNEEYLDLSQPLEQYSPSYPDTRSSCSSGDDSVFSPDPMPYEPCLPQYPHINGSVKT
Sequence of Fibroblast growth factor receptor 2 (Homo sapiens, UniProt P21802, N549H) (P21802 22-821 N549H limits assumed): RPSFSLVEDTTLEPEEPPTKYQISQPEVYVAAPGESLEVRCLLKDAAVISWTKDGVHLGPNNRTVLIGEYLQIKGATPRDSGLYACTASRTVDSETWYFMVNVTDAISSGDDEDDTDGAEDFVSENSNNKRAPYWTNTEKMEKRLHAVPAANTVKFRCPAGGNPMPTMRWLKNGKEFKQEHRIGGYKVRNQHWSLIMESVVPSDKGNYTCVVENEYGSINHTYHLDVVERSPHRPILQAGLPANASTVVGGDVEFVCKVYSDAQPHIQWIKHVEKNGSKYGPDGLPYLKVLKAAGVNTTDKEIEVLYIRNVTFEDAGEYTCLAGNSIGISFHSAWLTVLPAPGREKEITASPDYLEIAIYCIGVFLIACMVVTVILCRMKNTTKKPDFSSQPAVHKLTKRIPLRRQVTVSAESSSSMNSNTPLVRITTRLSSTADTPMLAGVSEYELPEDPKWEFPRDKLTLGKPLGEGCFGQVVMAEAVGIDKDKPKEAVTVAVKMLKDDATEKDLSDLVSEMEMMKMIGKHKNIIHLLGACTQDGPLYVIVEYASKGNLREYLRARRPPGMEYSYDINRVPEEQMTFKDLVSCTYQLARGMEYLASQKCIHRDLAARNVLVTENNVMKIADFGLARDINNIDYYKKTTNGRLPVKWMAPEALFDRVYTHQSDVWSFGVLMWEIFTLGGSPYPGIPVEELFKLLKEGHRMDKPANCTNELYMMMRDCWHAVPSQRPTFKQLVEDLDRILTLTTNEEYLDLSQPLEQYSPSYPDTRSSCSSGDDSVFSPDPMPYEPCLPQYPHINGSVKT
Sequence of Fibroblast growth factor receptor 3 (Homo sapiens, UniProt P22607) (P22607 whole entry): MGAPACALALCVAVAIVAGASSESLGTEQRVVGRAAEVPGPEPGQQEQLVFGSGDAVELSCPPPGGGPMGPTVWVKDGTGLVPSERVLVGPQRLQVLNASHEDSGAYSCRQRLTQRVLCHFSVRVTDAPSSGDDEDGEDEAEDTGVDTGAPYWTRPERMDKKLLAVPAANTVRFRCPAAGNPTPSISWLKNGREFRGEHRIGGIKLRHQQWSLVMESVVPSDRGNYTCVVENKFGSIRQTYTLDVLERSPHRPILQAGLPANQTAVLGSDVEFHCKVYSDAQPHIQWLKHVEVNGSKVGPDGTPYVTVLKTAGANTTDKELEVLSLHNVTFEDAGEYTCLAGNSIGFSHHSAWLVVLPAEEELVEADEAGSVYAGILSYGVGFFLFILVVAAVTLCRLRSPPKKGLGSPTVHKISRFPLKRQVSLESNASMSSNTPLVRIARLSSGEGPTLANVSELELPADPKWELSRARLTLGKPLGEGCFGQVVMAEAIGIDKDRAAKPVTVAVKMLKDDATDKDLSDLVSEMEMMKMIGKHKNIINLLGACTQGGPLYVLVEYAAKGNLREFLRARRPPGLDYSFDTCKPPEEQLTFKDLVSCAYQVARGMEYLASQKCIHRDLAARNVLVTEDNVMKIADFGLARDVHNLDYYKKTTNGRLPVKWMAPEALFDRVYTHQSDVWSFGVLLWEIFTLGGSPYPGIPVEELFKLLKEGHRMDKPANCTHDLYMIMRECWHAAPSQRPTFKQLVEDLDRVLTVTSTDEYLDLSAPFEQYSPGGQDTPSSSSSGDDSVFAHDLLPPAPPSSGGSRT
Sequence of Fibroblast growth factor receptor 2 (Homo sapiens, UniProt P21802, V564F) (P21802 22-821 V564F limits assumed): as the sequence (P21802 22-821 N549H limits assumed) above, with H528N, V543F counted along it

pIC50 [1]: 7.28
pIC50 (NCI-H2228): < 5.00
pIC50 (ASPC1): < 5.00
Stability [2]: Stable
pIC50 (BaF3): < 5.00
inhibition [3]: 37.6%
pIC50 (NCI-H3122): < 5.00
half-life [4]: 55.9 min
pIC50 (NCI-H1792): < 5.00
pIC50 (NCI-H1581 [5]): 7.26
half-life [6]: 37.5 min
pIC50 (NCI-H520): < 5.00
pIC50 [9]: 7.87
pIC50 [10]: 5.70
pIC50 (HCC78): < 5.00
AUC [11]: 116 ng·h/mL
AUC(0-inf) [12]: 75.4 ng·h/mL
MRT [13]: 15.1 min
MRT [14]: 69.6 min
AUC(0-t) at 24 h [15]: 115 ng·h/mL
inhibition [16]: 80.9%
pIC50 [17]: 7.80
pIC50 (PANC-1): < 5.00
pIC50 (NCI-H526): < 5.00
solubility kinetic [19]: 50 µg/mL (≈ 116 µM)
pIC50 [20]: 5.54
pIC50 (NCI-H441): < 5.00
pIC50 (SNU-16): 8.92
pIC50 (BXPC-3): < 5.00
pIC50 (NCI-H522): < 5.00
pIC50 (A549): < 5.00
Cmax [21]: 174 ng/mL
pIC50 (PC-9): < 5.00
Structure (SMILES): C=CC(=O)N1CCCC(n2nc3c(=O)[nH]nc(N)c3c2-c2oc3ccc(C)cc3c2C)C1 (centres undefined)
pIC50 (Hs746T): < 5.00
pIC50 (OPM-2): 6.52
Activity (NCI-H1581 [7]): Dose-Dependent Effect
Activity (NCI-H1581 [8]): Active
Activity [18]: Non-Toxic
Activity (NCI-H716): 83.5%
